Patent publication US4594241A, “Anti-leishmanial pharmaceutical formulations” (Burroughs Wellcome Co., priority 1982, dated 1986)

What was measured:
[1] = test system: Leishmania donovani; experiment: Animal test: mice infected with Leishmania donovani, single intravenous injection (Experiment No. 82), liver parasite count; assay type: in vivo, Leishmania donovani in Balb/c mice
Description: Inbred male mice, strain Balb/c (Bantin & Kingman), were infected with Leishmania donovani by intravenous inoculation of 10^7 amastigotes from the spleen of an infected hamster. One week after inoculation, the mice were divided into groups of 9-10 animals and dosed intravenously into the tail vein with sodium stibogluconate, either as free drug or entrapped in liposomes similar to those described in Example 1. […] Empty liposomes were inoculated into one group as controls. Seven days after the first dose of drug, the mice were killed, the livers excised and weighed, and impression smears prepared from a cut surface of the liver. The impression smears were stained with Giemsa, and number of amastigotes counted microscopically per 500 liver cell nuclei, and the total number of parasites calculated by the method of Stauber et al. J. Protozoology, 5, 269, (1958).
(§1) The doses of sodium stibogluconate were calculated in terms of mg antimony/kg for both free and entrapped drug. The liposome dilutions were freshly prepared for each day of drug treatment.
The results of treatment are expressed as the mean of the total numbers of amastigotes in the liver of each mouse. The following results were obtained:
Further animal tests on mice, as described in Example 2, were carried out using a liposomal formulation corresponding to that described as Preparation No. 8 in Example 2. […]

[2] = test system: Leishmania donovani; experiment: Animal test: Balb/c mice infected with Leishmania donovani, intravenous treatment once daily for 5 days, liver parasite count; assay type: in vivo, Leishmania donovani in Balb/c mice; details: for ED50 (P95 limits): i.v. daily for 5 days, 10080 min
Description: Inbred male mice, strain Balb/c (Bantin & Kingman), were infected with Leishmania donovani by intravenous inoculation of 10^7 amastigotes from the spleen of an infected hamster. One week after inoculation, the mice were divided into groups of 9-10 animals and dosed intravenously into the tail vein with sodium stibogluconate, either as free drug or entrapped in liposomes similar to those described in Example 1. The dose was given once daily for 5 days. Empty liposomes were inoculated into one group as controls. Seven days after the first dose of drug, the mice were killed, the livers excised and weighed, and impression smears prepared from a cut surface of the liver. The impression smears were stained with Giemsa, and number of amastigotes counted microscopically per 500 liver cell nuclei, and the total number of parasites calculated by the method of Stauber et al. J. Protozoology, 5, 269, (1958).
as §1
The results of treatment are expressed as the mean of the total numbers of amastigotes in the liver of each mouse.

[3] = expt. 44, 15 mg Sb/kg × 5, i.v.
[4] = expt. 56, 0.5 mg Sb/kg × 5, i.v.
[5] = expt. 56, 1.0 mg Sb/kg × 5, i.v.
[6] = expt. 56, 2.0 mg Sb/kg × 5, i.v.
[7] = expt. 56, 4.0 mg Sb/kg × 5, i.v.

## sodium stibogluconate
[1]
  ED50 (dosage rate necessary to reduce the parasite count to 50% of the untreated group): 61.2 mg antimony per kilogram body weight
[2]; Expt. 44
  Potency relates to free drug (P95 limits): 1
  ED50 (P95 limits): 2.4 (3.2-1.8) mg Sb/kg × 5
[2]; Expt. 56
  Potency relates to free drug (P95 limits): 1
  ED50 (P95 limits): 1.14 (1.35-0.95) mg Sb/kg × 5
[2]; expt. 44, 5 mg Sb/kg × 5, i.v.
  % inhibition: 72%
  Mean no. of parasites/mouse liver ± SE: 1.54 ± 0.21 × 10^8
[2]; [3]
  % inhibition: 93%
  Mean no. of parasites/mouse liver ± SE: 0.38 ± 0.08 × 10^8
[2]; [4]
  % inhibition: 23%
  Mean no. of parasites/mouse liver ± SE: 3.80 ± 0.37 × 10^8
[2]; [5]
  % inhibition: 26%
  Mean no. of parasites/mouse liver ± SE: 3.65 ± 0.29 × 10^8
[2]; [6]
  % inhibition: 69%
  Mean no. of parasites/mouse liver ± SE: 1.55 ± 0.36 × 10^8
[2]; [7]
  % inhibition: 93%
  Mean no. of parasites/mouse liver ± SE: 0.35 ± 0.11 × 10^8
